# Measurements reported in patent publication US11446287B2, “Compounds and methods for EP300 or CBP modulation and indications therefor” (Opna Immuno-Oncology SA, priority 2019, dated 2022).
# Biological target: T1, Recombinant human CBP containing the bromodomain (CBP-BD (1043-1159)) (Homo sapiens, UniProt Q92793)
# T1 construct: Recombinant human CBP bromodomain (CBP-BD (1043-1159)); made in house; host or cells: E. coli BL21-CodonPlus (DE3), modified pET vector
# Test: CBP Alphascreen binding assay
# Settings: read-out: CREBBP (CBP) IC50
# Procedure, shortened: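 Buffer: 50 mM HEPES pH 7.5, 50 mM NaCl, 0.01% BSA, 0.01% Triton X-100, 2 mM DTT. The signal was normalised to plate controls and fitted with a four-parameter curve to give IC50.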
# T1 sequence (Q92793 1081-1197): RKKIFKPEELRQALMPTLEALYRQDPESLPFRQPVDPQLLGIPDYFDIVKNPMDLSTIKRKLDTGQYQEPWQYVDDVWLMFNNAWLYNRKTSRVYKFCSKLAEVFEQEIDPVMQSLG
row,Structure (SMILES),IC50 [µM]
1,"Cc1noc(C)c1-c1cnc2c(c1)c(-c1ccc(C(N)=O)cc1)cn2C(c1ccccn1)C1CCCC1 (stereo not drawn) [P-0020, 4-(1-(cyclopentyl(pyridin-2-yl)methyl)-5-(3,5-dimethylisoxazol-4-yl)-1H-pyrrolo[2,3-b]pyridin-3-yl)benzamide]",1 to 8
2,"CNC(=O)c1ccc(-c2cn(C(c3ccccn3)C3CCCC3)c3ncc(-c4c(C)noc4C)cc23)cc1 (stereo not drawn) [P-0021, 4-(1-(cyclopentyl(pyridin-2-yl)methyl)-5-(3,5-dimethylisoxazol-4-yl)-1H-pyrrolo[2,3-b]pyridin-3-yl)-N-methylbenzamide]",1 to 8
3,"Cc1noc(C)c1-c1cnc2c(c1)c(-c1ccc(C#N)cc1)cn2C(c1ccccn1)C1CCCC1 (stereo not drawn) [P-0022, 4-(1-(cyclopentyl(pyridin-2-yl)methyl)-5-(3,5-dimethylisoxazol-4-yl)-1H-pyrrolo[2,3-b]pyridin-3-yl)benzonitrile]",8 to 1000
4,"Cc1noc(C)c1-c1cnc2c(c1)c(-c1ccc3c(c1)CNC3=O)cn2C(c1ccccn1)C1CCCC1 (stereo not drawn) [P-0023, 5-(1-(cyclopentyl(pyridin-2-yl)methyl)-5-(3,5-dimethylisoxazol-4-yl)-1H-pyrrolo[2,3-b]pyridin-3-yl)isoindolin-1-one]",1 to 8
5,"Cc1noc(C)c1-c1cnc2c(c1)c(-c1ccc(-c3nn[nH]n3)cc1)cn2C(c1ccccn1)C1CCCC1 (stereo not drawn) [P-0024, 4-(3-(4-(2H-tetrazol-5-yl)phenyl)-1-(cyclopentyl(pyridin-2-yl)methyl)-1H-pyrrolo[2,3-b]pyridin-5-yl)-3,5-dimethylisoxazole]",1 to 8
6,"Cc1noc(C)c1-c1cnc2c(c1)c(-c1ccc(C(=O)O)c(F)c1)cn2C(c1ccccn1)C1CCCC1 (stereo not drawn) [P-0025, 4-(1-(cyclopentyl(pyridin-2-yl)methyl)-5-(3,5-dimethylisoxazol-4-yl)-1H-pyrrolo[2,3-b]pyridin-3-yl)-2-fluorobenzoic acid]",0.0001 to 1
7,"Cc1noc(C)c1-c1cnc2c(c1)c(-c1ccc(C(=O)O)nc1)cn2C(c1ccccn1)C1CCCC1 (stereo not drawn) [P-0026, 5-(1-(cyclopentyl(pyridin-2-yl)methyl)-5-(3,5-dimethylisoxazol-4-yl)-1H-pyrrolo[2,3-b]pyridin-3-yl)picolinic acid]",0.0001 to 1
8,"Cc1cc(-c2c(C(F)(F)F)n([C@@H](C)c3ccccn3)c3cc(-c4c(C)noc4C)cnc23)ccc1C(=O)O [P-0243, (S)-4-(6-(3,5-dimethylisoxazol-4-yl)-1-(1-(pyridin-2-yl)ethyl)-2-(trifluoromethyl)-1H-pyrrolo[3,2-b]pyridin-3-yl)-2-methylbenzoic acid]",1 to 8
9,"COc1cc(-c2c(C(F)(F)F)n([C@@H](C)c3ccccn3)c3cc(-c4c(C)noc4C)cnc23)ccc1C(=O)O [P-0244, (S)-4-(6-(3,5-dimethylisoxazol-4-yl)-1-(1-(pyridin-2-yl)ethyl)-2-(trifluoromethyl)-1H-pyrrolo[3,2-b]pyridin-3-yl)-2-methoxybenzoic acid]",1 to 8
10,"Cc1noc(C)c1-c1cnc2c(-c3cccc(C(=O)O)c3F)c(C(F)(F)F)n([C@@H](C)c3ccccn3)c2c1 [P-0245, (S)-3-(6-(3,5-dimethylisoxazol-4-yl)-1-(1-(pyridin-2-yl)ethyl)-2-(trifluoromethyl)-1H-pyrrolo[3,2-b]pyridin-3-yl)-2-fluorobenzoic acid]",0.0001 to 1
11,"Cc1noc(C)c1-c1cnc2c(-c3cccc(C(=O)O)c3C)c(C(F)(F)F)n([C@@H](C)c3ccccn3)c2c1 [P-0246, (S)-3-(6-(3,5-dimethylisoxazol-4-yl)-1-(1-(pyridin-2-yl)ethyl)-2-(trifluoromethyl)-1H-pyrrolo[3,2-b]pyridin-3-yl)-2-methylbenzoic acid]",1 to 8
12,"Cc1noc(C)c1-c1cnc2c(-c3cccc(C(=O)O)c3Cl)c(C(F)(F)F)n([C@@H](C)c3ccccn3)c2c1 [P-0247, (S)-2-chloro-3-(6-(3,5-dimethylisoxazol-4-yl)-1-(1-(pyridin-2-yl)ethyl)-2-(trifluoromethyl)-1H-pyrrolo[3,2-b]pyridin-3-yl)benzoic acid]",0.0001 to 1
13,"CCOC(=O)c1cc(-c2cn(-c3ccc(F)cc3F)c3ncc(-c4c(C)noc4C)cc23)c(OCC)cc1O [P-0248, ethyl 5-(1-(2,4-difluorophenyl)-5-(3,5-dimethylisoxazol-4-yl)-1H-pyrrolo[2,3-b]pyridin-3-yl)-4-ethoxy-2-hydroxybenzoate]",8 to 1000
14,"CCOc1cc(O)c(C(=O)O)cc1-c1cn(-c2ccc(F)cc2F)c2ncc(-c3c(C)noc3C)cc12 [P-0249, 5-(1-(2,4-difluorophenyl)-5-(3,5-dimethylisoxazol-4-yl)-1H-pyrrolo[2,3-b]pyridin-3-yl)-4-ethoxy-2-hydroxybenzoic acid]",0.0001 to 1
15,"CCOc1cc(OC)c(C(=O)O)cc1-c1cn(-c2ccc(F)cc2F)c2ncc(-c3c(C)noc3C)cc12 [P-0250, 5-(1-(2,4-difluorophenyl)-5-(3,5-dimethylisoxazol-4-yl)-1H-pyrrolo[2,3-b]pyridin-3-yl)-4-ethoxy-2-methoxybenzoic acid]",0.0001 to 1
16,"Cc1noc(C)c1-c1cnc2c(c1)c(-c1ccc(C(=O)O)cc1OC(F)(F)F)cn2-c1cnccc1F [P-0251, 4-(5-(3,5-dimethylisoxazol-4-yl)-1-(4-fluoropyridin-3-yl)-1H-pyrrolo[2,3-b]pyridin-3-yl)-3-(trifluoromethoxy)benzoic acid]",0.0001 to 1
17,"Cc1noc(C)c1-c1cnc2c(c1)c(-c1ccc(C(=O)O)cc1OC(F)(F)F)cn2-c1cnccc1O [P-0252, 4-(5-(3,5-dimethylisoxazol-4-yl)-1-(4-hydroxypyridin-3-yl)-1H-pyrrolo[2,3-b]pyridin-3-yl)-3-(trifluoromethoxy)benzoic acid]",0.0001 to 1
18,"Cc1noc(C)c1-c1cnc2c(c1)c(-c1ccc(C(=O)O)cc1OC(F)(F)F)cn2-c1ccncc1Cl [P-0253, 4-(1-(3-chloropyridin-4-yl)-5-(3,5-dimethylisoxazol-4-yl)-1H-pyrrolo[2,3-b]pyridin-3-yl)-3-(trifluoromethoxy)benzoic acid]",0.0001 to 1
19,"Cc1noc(C)c1-c1cnc2c(c1)c(-c1ccc(C(=O)O)cc1OC(F)(F)F)cn2-c1c(F)cccc1C#N [P-0254, 4-(1-(2-cyano-6-fluorophenyl)-5-(3,5-dimethylisoxazol-4-yl)-1H-pyrrolo[2,3-b]pyridin-3-yl)-3-(trifluoromethoxy)benzoic acid]",0.0001 to 1
20,"COc1cc(C(=O)O)cc(C)c1-c1cn(-c2ccccc2)c2ncc(-c3c(C)noc3C)cc12 [P-0255, 4-(5-(3,5-dimethylisoxazol-4-yl)-1-phenyl-1H-pyrrolo[2,3-b]pyridin-3-yl)-3-methoxy-5-methylbenzoic acid]",0.0001 to 1
21,"Cc1noc(C)c1-c1cnc2c(-c3ccc(C(=O)O)cc3C#N)c(C(F)(F)F)n([C@@H](C)c3ccccn3)c2c1 [P-0256, (S)-3-cyano-4-(6-(3,5-dimethylisoxazol-4-yl)-1-(1-(pyridin-2-yl)ethyl)-2-(trifluoromethyl)-1H-pyrrolo[3,2-b]pyridin-3-yl)benzoic acid]",0.0001 to 1
22,"Cc1noc(C)c1-c1cnc2c(-c3cc(C(=O)O)ccc3Cl)c(C(F)(F)F)n([C@@H](C)c3ccccn3)c2c1 [P-0257, (S)-4-chloro-3-(6-(3,5-dimethylisoxazol-4-yl)-1-(1-(pyridin-2-yl)ethyl)-2-(trifluoromethyl)-1H-pyrrolo[3,2-b]pyridin-3-yl)benzoic acid]",0.0001 to 1
23,"CCOc1cc(C(=O)O)cc(OCC)c1-n1cc(-c2cnn(CS(C)(=O)=O)c2)c2ncc(-c3c(C)noc3C)cc21 [P-0258, 4-(6-(3,5-dimethylisoxazol-4-yl)-3-(1-((methylsulfonyl)methyl)-1H-pyrazol-4-yl)-1H-pyrrolo[3,2-b]pyridin-1-yl)-3,5-diethoxybenzoic acid]",0.0001 to 1
24,"CCOc1cc(C(=O)O)cc(OCC)c1-n1cc(-c2cn(C(C)C)nc2C)c2ncc(-c3c(C)noc3C)cc21 [P-0259, 4-(6-(3,5-dimethylisoxazol-4-yl)-3-(1-isopropyl-3-methyl-1H-pyrazol-4-yl)-1H-pyrrolo[3,2-b]pyridin-1-yl)-3,5-diethoxybenzoic acid]",0.0001 to 1
25,"CCOc1cc(C(=O)O)cc(OCC)c1-n1cc(-c2cnn(CC(C)(C)O)c2)c2ncc(-c3c(C)noc3C)cc21 [P-0260, 4-(6-(3,5-dimethylisoxazol-4-yl)-3-(1-(2-hydroxy-2-methylpropyl)-1H-pyrazol-4-yl)-1H-pyrrolo[3,2-b]pyridin-1-yl)-3,5-diethoxybenzoic acid]",0.0001 to 1
26,"CCOc1cc(C(=O)O)cc(OCC)c1-n1cc(-c2cnn(C(F)F)c2)c2ncc(-c3c(C)noc3C)cc21 [P-0261, 4-(3-(1-(difluoromethyl)-1H-pyrazol-4-yl)-6-(3,5-dimethylisoxazol-4-yl)-1H-pyrrolo[3,2-b]pyridin-1-yl)-3,5-diethoxybenzoic acid]",0.0001 to 1
27,"CCOc1cc(C(=O)O)cc(OCC)c1-n1cc(-c2cnn(CCN(C)C)c2)c2ncc(-c3c(C)noc3C)cc21 [P-0262, 4-(3-(1-(2-(dimethylamino)ethyl)-1H-pyrazol-4-yl)-6-(3,5-dimethylisoxazol-4-yl)-1H-pyrrolo[3,2-b]pyridin-1-yl)-3,5-diethoxybenzoic acid]",0.0001 to 1
28,"CCOc1cc(C(=O)O)cc(OCC)c1-n1cc(-c2cn(C)nc2C)c2ncc(-c3c(C)noc3C)cc21 [P-0263, 4-(3-(1,3-dimethyl-1H-pyrazol-4-yl)-6-(3,5-dimethylisoxazol-4-yl)-1H-pyrrolo[3,2-b]pyridin-1-yl)-3,5-diethoxybenzoic acid]",0.0001 to 1
29,"CCOc1cc(C(=O)O)cc(OCC)c1-n1cc(-c2cnn(CC3CC3)c2)c2ncc(-c3c(C)noc3C)cc21 [P-0264, 4-(3-(1-(cyclopropylmethyl)-1H-pyrazol-4-yl)-6-(3,5-dimethylisoxazol-4-yl)-1H-pyrrolo[3,2-b]pyridin-1-yl)-3,5-diethoxybenzoic acid]",0.0001 to 1
30,"CCOc1cc(C(=O)O)cc(OCC)c1-n1cc(-c2cnn(C3CC3)c2)c2ncc(-c3c(C)noc3C)cc21 [P-0265, 4-(3-(1-cyclopropyl-1H-pyrazol-4-yl)-6-(3,5-dimethylisoxazol-4-yl)-1H-pyrrolo[3,2-b]pyridin-1-yl)-3,5-diethoxybenzoic acid]",0.0001 to 1
